According to patent publication US9969699B2, “Cancer cell growth inhibitor, anticancer agent, and method for screening same, as well as novel compound” (Microbial Chemistry Research Foundation, priority 2014, dated 2018):

Legend:
[1] = Acute toxicity test, oral administration; assay type: in vivo, ICR mice; conditions: orally once; for Organ weight Heart / Organ weight Kidney (Left) / Organ weight Kidney (Right) / Organ weight Liver / Organ weight Lung / Organ weight Spleen / Organ weight Thymus: two weeks after
Text: Two-weeks after the compounds represented by the Structural Formula (1) at the above concentrations were orally administered, the mice were dissected and organs thereof were weighed.
Two-weeks after the compounds represented by the Structural Formula (8) at the above concentrations were orally administered, the mice were dissected and organs thereof were weighed.

NIH3T3/EGFR vIII cells = assay: 3D cell culture step (environment without adhesion scaffold), proliferation of NIH3T3/EGFR vIII cells; assay type: cell-based, mouse
[2] = tested on: NIH3T3/EGFR vIII cell-transplanted tumor
[3] = 30 mg/kg intraperitoneally once a day, day 1 to day 17

## Nc1ccc(Br)cc1-c1nc2ccccc2[nH]c1=O [Structural Formula (1), 3-(2-amino-5-bromophenyl)-2(1H)-quinoxalinone]
[1]; 0.098 mg/kg/0.2 mL
  Organ weight Heart: 124.0 mg
  Organ weight Kidney (Left): 183.0 mg
  Organ weight Kidney (Right): 191.0 mg
  Organ weight Liver: 1524.0 mg
  Organ weight Lung: 163.0 mg
  Organ weight Spleen: 132.0 mg
[1]; 6.25 mg/kg/0.2 mL
  Organ weight Heart: 122.0 mg
  Organ weight Lung: 169.0 mg
  Organ weight Thymus: 112.0 mg
[1]; 12.5 mg/kg/0.2 mL
  Organ weight Heart: 143.0 mg
  Organ weight Kidney (Left): 177.0 mg
  Organ weight Kidney (Right): 177.0 mg
  Organ weight Liver: 1327.0 mg
  Organ weight Lung: 191.0 mg
  Organ weight Spleen: 173.0 mg
  Organ weight Thymus: 99.0 mg
[1]; 25 mg/kg/0.2 mL
  Organ weight Heart: 116.0 mg
  Organ weight Kidney (Left): 157.0 mg
  Organ weight Kidney (Right): 169.0 mg
  Organ weight Liver: 1290.0 mg
  Organ weight Lung: 176.0 mg
  Organ weight Spleen: 100.0 mg
  Organ weight Thymus: 87.0 mg
[1]; 50 mg/kg/0.4 mL
  Organ weight Heart: 115.0 mg
  Organ weight Kidney (Left): 150.0 mg
  Organ weight Kidney (Right): 155.0 mg
  Organ weight Liver: 1403.0 mg
  Organ weight Lung: 166.0 mg
  Organ weight Spleen: 117.0 mg
  Organ weight Thymus: 95.0 mg
[1]; 0.098 to 50 mg/kg, observed 2 weeks
  toxicity: no significant toxicity
NIH3T3/EGFR vIII cells; 3D cell culture step
  cell proliferation inhibiting activity compared with AG1478, Gefitinib and Erlotinib: more significant cell proliferation inhibiting activity
NIH3T3/EGFR vIII cells; Mus musculus, 72 h, NIH3T3/EGFR vIII cells, Ultra Low Attachment plate, 3 days, […]-GLO
  IC50: 0.012 µM
NIH3T3/EGFR vIII cells; Test Example 3, NIH3T3/EGFR vIII cells
  inhibiting activity against scaffold-independent proliferation capacity: exhibited an inhibiting activity
[2]; 30 mg/kg intraperitoneally once a day, 17 days after transplantation, t<0.05
  tumor weight versus negative control group: significantly different
[2]; [3]
  mouse body weight (weight loss): weight loss was not observed
  toxicity: no toxicity
  tumor proliferation inhibiting activity: exhibited the tumor proliferation inhibiting activity
[2]; 30 mg/kg intraperitoneally vs Gefitinib 100 mg/kg orally
  tumor proliferation inhibiting activity compared with Gefitinib: comparable
